According to patent US20260184663A1, “INDENE COMPOUNDS, PHARMACEUTICAL COMPOSITIONS THEREOF, AND THEIR THERAPEUTIC APPLICATIONS” (NucMito Pharmaceuticals co. Ltd., priority 2022, published 2026):

How the values were obtained:
Format in all cases: cell-based
SW480 (colon cancer) = test: Antiproliferative activity (CCK-8 cell viability), SW480; details: Homo sapiens, 72 h, read-out: Antiproliferative activity in cancerous cells, SW480 (inhibition of cell growth); for inhibition at 3.3 µM: Compound concentration: 3.3 μM; for inhibition at 10 µM: Compound concentration: 10 μM; for inhibition at 30 µM: Compound concentration: 30 μM
Method in brief: (§1)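 Cells were seeded at 2,000-5,000/well (HeLa in MEM, HepG2 and SW480 in DMEM, A549 in F-12K, all with 10% FBS) and treated with compound at 3.3, 10 or 30 μM for 72 h at 37° C. CCK-8 was added for 4 h, absorbance was read at 450 nm, and viability was expressed relative to DMSO-treated wells.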

[1] = test system: MDA-MB-231 (breast cancer); test: Antiproliferative activity (CCK-8 cell viability), MDA-MB-231; details: Homo sapiens, 72 h, read-out: Antiproliferative activity in cancerous cells, MDA-MB-231 (inhibition of cell growth); for inhibition at 3.3 µM: Compound concentration: 3.3 μM; for inhibition at 10 µM: Compound concentration: 10 μM; for inhibition at 30 µM: Compound concentration: 30 μM
Method in brief: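 In this CCK-8 viability assay, MDA-MB-231 cells maintained in Dulbecco's modified Eagle's medium containing 10% fetal bovine serum were placed in 96-well plates (2,000-5,000 cells/well) and treated with compound for 72 h at 37° C. A 4 h incubation with 10 μL CCK-8 followed, plates were read at 450 nm, and viability was expressed against DMSO vehicle wells across replicates.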

[2] = test system: A549 (lung adenocarcinoma); test: Antiproliferative activity (CCK-8 cell viability), A549; details: Homo sapiens, 72 h, read-out: Antiproliferative activity in cancerous cells, A549 (inhibition of cell growth); for inhibition at 3.3 µM: Compound concentration: 3.3 μM; for inhibition at 10 µM: Compound concentration: 10 μM; for inhibition at 30 µM: Compound concentration: 30 μM
Method in brief: as §1

HepG2 (liver cancer) = test: Antiproliferative activity (CCK-8 cell viability), HepG2; details: Homo sapiens, 72 h, read-out: Antiproliferative activity in cancerous cells, HepG2 (inhibition of cell growth); for inhibition at 3.3 µM: Compound concentration: 3.3 μM; for inhibition at 10 µM: Compound concentration: 10 μM; for inhibition at 30 µM: Compound concentration: 30 μM
Method in brief: as §1

HeLa (cervical cancer) = test: Antiproliferative activity (CCK-8 cell viability), HeLa; details: Homo sapiens, 72 h, read-out: Antiproliferative activity in cancerous cells, HELA (inhibition of cell growth); for inhibition at 3.3 µM: Compound concentration: 3.3 μM; for inhibition at 10 µM: Compound concentration: 10 μM; for inhibition at 30 µM: Compound concentration: 30 μM
Method in brief: as §1

[3] = test system: A431 (epidermoid carcinoma); test: Antiproliferative activity (CCK-8 cell viability), A431; details: Homo sapiens, 72 h, read-out: Antiproliferative activity in cancerous cells, A431 (inhibition of cell growth); for inhibition at 3.3 µM: A-431, Compound concentration: 3.3 μM; for inhibition at 10 µM: A-431, Compound concentration: 10 μM; for inhibition at 30 µM: A-431, Compound concentration: 30 μM
Method in brief: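 Cell viability of compound-treated A431 cells was measured with a Cell Counting Kit-8. Each well received 10 μL of CCK-8 after 72 h of compound exposure, followed by 4 h incubation at 37° C. and a 450 nm plate-reader measurement. Percent viability was calculated relative to DMSO controls across replicates.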

[4] = test system: B16F10 (malignant melanoma); test: Antiproliferative activity (CCK-8 cell viability), B16F10; details: Mus musculus, 72 h, read-out: Antiproliferative activity in cancerous cells, B16F10 (inhibition of cell growth); for inhibition at 3.3 µM: B16-F10, Compound concentration: 3.3 μM; for inhibition at 10 µM: B16-F10, Compound concentration: 10 μM; for inhibition at 30 µM: B16-F10, Compound concentration: 30 μM
Method in brief: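 Attached B16F10 cells in 96-well plates were incubated with compound at 37° C for 72 h, followed by 10 μL CCK-8 reagent per well and a further 4 h incubation. A multi-well plate reader measured absorbance at 450 nm. Percent viability across replicates was calculated against DMSO vehicle-treated cells.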

SMILES | inhibition at 3.3 µM (SW480 (colon cancer)) | inhibition at 10 µM (SW480 (colon cancer)) | inhibition at 30 µM (SW480 (colon cancer)) | inhibition at 3.3 µM [1] | inhibition at 10 µM [1] | inhibition at 30 µM [1] | inhibition at 3.3 µM [2] | inhibition at 10 µM [2] | inhibition at 30 µM [2] | inhibition at 3.3 µM (HepG2 (liver cancer)) | inhibition at 10 µM (HepG2 (liver cancer)) | inhibition at 30 µM (HepG2 (liver cancer)) | inhibition at 3.3 µM (HeLa (cervical cancer)) | inhibition at 10 µM (HeLa (cervical cancer)) | inhibition at 30 µM (HeLa (cervical cancer)) | inhibition at 3.3 µM [3] | inhibition at 10 µM [3] | inhibition at 30 µM [3] | inhibition at 3.3 µM [4] | inhibition at 10 µM [4] | other results
CC1=C(CC(=O)O)c2cc(Cl)ccc2/C1=C/c1ccc(Oc2ccc(C(C)C)cc2)cc1 [E30, (E)-2-(5-Chloro-1-(4-(4-isopropylphenoxy)benzylidene)-2-methyl-1H-inden-3-yl)acetic acid] | ≥ 50% | ≥ 50% | ≥ 50% | ≥ 50% | ≥ 50% | ≥ 50% | < 30% | ≥ 50% | ≥ 50% | 30 to 50% | ≥ 50% | ≥ 50% | ≥ 50% | ≥ 50% | ≥ 50% | < 30% | ≥ 50% | ≥ 50% | ≥ 50% | ≥ 50% | inhibition at 30 µM [4]: ≥ 50%
CCc1ccc(Oc2ccc(/C=C3\C(C)=C(CC(=O)O)c4cc(Cl)ccc43)cc2)cc1 [E31, (E)-2-(5-Chloro-1-(4-(4-ethylphenoxy)benzylidene)-2-methyl-1H-inden-3-yl)acetic acid] | 30 to 50% | 30 to 50% | ≥ 50% | ≥ 50% | ≥ 50% | ≥ 50% | ≥ 50% | ≥ 50% | ≥ 50% | < 30% | ≥ 50% | ≥ 50% | ≥ 50% | ≥ 50% | ≥ 50% | ≥ 50% | ≥ 50% | ≥ 50% | 30 to 50% | ≥ 50% | inhibition at 30 µM [4]: ≥ 50%
CC1=C(CC(=O)O)c2cc(Br)ccc2/C1=C/c1ccc(Oc2ccc(F)cc2)cc1 [E32, (E)-2-(5-Bromo-1-(4-(4-fluorophenoxy)benzylidene)-2-methyl-1H-inden-3-yl)acetic acid] | 30 to 50% | ≥ 50% | ≥ 50% | ≥ 50% | ≥ 50% | ≥ 50% | 30 to 50% | ≥ 50% | ≥ 50% | < 30% | ≥ 50% | ≥ 50% | ≥ 50% | ≥ 50% | ≥ 50% | ≥ 50% | ≥ 50% | ≥ 50% | ≥ 50% | ≥ 50% | inhibition at 30 µM [4]: ≥ 50%
CC1=C(CC(=O)O)c2c(Cl)cc(Cl)cc2/C1=C/c1ccc(Oc2ccc(F)cc2)cc1 [E33, (E)-2-(4,6-Dichloro-1-(4-(4-fluorophenoxy)benzylidene)-2-methyl-1H-inden-3-yl)acetic acid] | < 30% | 30 to 50% | ≥ 50% | < 30% | ≥ 50% | ≥ 50% | < 30% | ≥ 50% | ≥ 50% | < 30% | ≥ 50% | ≥ 50% | 30 to 50% | ≥ 50% | ≥ 50% | ≥ 50% | ≥ 50% | ≥ 50% | ≥ 50% | ≥ 50% | inhibition at 30 µM [4]: ≥ 50%
